Laboratory results published in patent US20230063238A1, “IMMUNOMODULATORS” (Bristol-Myers Squibb Company, priority 2020, published 2023).
Starred links: 1 amine or outer side, 2 acyl side, 3 side chain; linkers in the order of their positions; H or OH if unused. Positions of bridges follow the written chain, without caps; N, C: chain ends. Non-standard residues stand in square brackets, D forms with d. Residues, ends and D or L forms follow the SMILES beside them. *: point of attachment. Trp(1-CH2CO2Me) = COC(=O)Cn1cc(C[C@H](N)C(=O)O)c2ccccc21; Trp(1-CH2COOH) = N[C@@H](Cc1cn(CC(=O)O)c2ccccc12)C(=O)O; Hyp = O=C(O)[C@@H]1C[C@@H](O)CN1; X8 = O=C(Nc1cc(F)cc(F)c1)C(=O)*; Oxalyl = O=C(C(=O)[*:2])[*:1]; NMeNle = CCCC[C@H](NC)C(=O)O; X4 = O=C(Nc1cccc(F)c1)C(=O)*; X1 = O=C(Oc1ccccc1)C(=O)*; NMeA = CN[C@@H](C)C(=O)O; Dab = NCC[C@H](N)C(=O)O; Dap = NC[C@H](N)C(=O)O; X7 = CN(C)C(=O)C(=O)*

Biological target: T1, PD-1/PD-L1 (Homo sapiens, UniProt Q9NZQ7)
T1 construct: TVMV protease site linker (C); made in house; host or cells: HEK293T cells
Assay: PD-1/PD-L1 Homogenous Time-Resolved Fluorescence (HTRF) binding assay
Details: PD-L1-His 10 nM final, PD-1-Ig 20 nM final; inhibitors pre-incubated with PD-L1-His for 15 m
From the text: The ability of the compounds of formula (I) to bind to PD-L1 was investigated using a PD-1/PD-L1 Homogenous Time-Resolved Fluorescence (HTRF) binding assay.
Homogenous Time-Resolved Fluorescence (HTRF) Binding Assay
The interaction of PD-1 and PD-L1 can be assessed using soluble, purified preparations of the extracellular domains of the two proteins. The PD-1 and PD-L1 protein extracellular domains were expressed as fusion proteins with detection tags, for PD-1, the tag was the Fc portion of Immunoglobulin (PD-1-Ig) and for PD-L1 it was the 6 histidine motif (PD-L1-His). All binding studies were performed in an HTRF assay buffer consisting of dPBS supplemented with 0.1% […] bovine serum albumin and 0.05% (v/v) Tween-20. For the h/PD-L1-His binding assay, inhibitors were pre-incubated with PD-L1-His (10 nM final) for 15 m in 4 μl of assay buffer, followed by addition of PD-1-Ig (20 nM final) in 1 μl of assay buffer and further incubation for 15m. HTRF detection was achieved using europium crypate-labeled anti-Ig (1 nM final) and allophycocyanin (APC) labeled anti-His (20 nM final). Antibodies were diluted in HTRF detection buffer and 5 μl was dispensed on top of the binding reaction. The reaction mixture was allowed to equilibrate for 30 minutes and the resulting signal (665 nm/620 nm ratio) was obtained using an EnVision fluorometer. Additional binding assays were established between the human proteins PD-1-Ig/PD-L2-His (20 & 5 nM, respectively) and CD80-His/PD-L1-Ig (100 & 10 nM, respectively).
Recombinant Proteins: Human PD-1 (25-167) with a C-terminal human Fc domain of immunoglobulin G (Ig) epitope tag [hPD-1 (25-167)-3S-IG] and human PD-L1 (18-239) with a C-terminal His epitope tag [hPD-L1(18-239)-TVMV-His] were expressed in HEK293T cells and purified sequentially by ProteinA affinity chromatography and size exclusion chromatography. Human PD-L2-His and CD80-His was obtained through commercial sources.
Table 1 lists the IC50 values for representative examples of this disclosure measured in the PD-1/PD-L1 Homogenous Time-Resolved Fluorescence (HTRF) binding assay.

T1 sequence (Q9NZQ7 18-239): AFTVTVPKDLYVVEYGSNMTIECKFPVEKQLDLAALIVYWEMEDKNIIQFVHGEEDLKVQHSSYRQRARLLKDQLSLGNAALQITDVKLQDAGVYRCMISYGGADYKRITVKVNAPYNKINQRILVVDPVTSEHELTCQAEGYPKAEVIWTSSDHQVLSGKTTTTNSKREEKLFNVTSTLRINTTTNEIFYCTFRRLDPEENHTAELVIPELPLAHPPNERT

SMILES	IC50
CCCC[C@H]1C(=O)N(C)[C@@H](CCCC)C(=O)N[C@@H](CC(C)C)C(=O)N[C@H](C(=O)NCC(N)=O)CSCC(=O)N[C@@H](Cc2ccc(O)cc2)C(=O)N(C)[C@@H](C)C(=O)N[C@@H](CC(N)=O)C(=O)N2CCC[C@H]2C(=O)N[C@@H](CNC(=O)C(=O)Oc2ccccc2)C(=O)N[C@@H](CC(C)C)C(=O)N2C[C@H](O)C[C@H]2C(=O)N[C@@H](Cc2c[nH]c3ccccc23)C(=O)N[C@@H](CCNC(=O)C(=O)Oc2ccccc2)C(=O)N[C@@H](Cc2cn(CC(=O)OC)c3ccccc23)C(=O)N1C [Compound 3003] ({CH2CO}-Y[NMeA]NP[Dap](X1)L[Hyp]W[Dab](X1)[Trp(1-CH2CO2Me)][NMeNle][NMeNle]LCG-NH2; thioether N-14)	0.64 nM
CCCC[C@H]1C(=O)N(C)[C@@H](CCCC)C(=O)N[C@@H](CC(C)C)C(=O)N[C@H](C(=O)NCC(N)=O)CSCC(=O)N[C@@H](Cc2ccc(O)cc2)C(=O)N(C)[C@@H](C)C(=O)N[C@@H](CC(N)=O)C(=O)N2CCC[C@H]2C(=O)N[C@@H](CNC(=O)C(=O)N(C)C)C(=O)N[C@@H](CC(C)C)C(=O)N2C[C@H](O)C[C@H]2C(=O)N[C@@H](Cc2c[nH]c3ccccc23)C(=O)N[C@@H](CCNC(=O)C(=O)N(C)C)C(=O)N[C@@H](Cc2cn(CC(=O)OC)c3ccccc23)C(=O)N1C [Compound 2005] ({CH2CO}-Y[NMeA]NP[Dap](X7)L[Hyp]W[Dab](X7)[Trp(1-CH2CO2Me)][NMeNle][NMeNle]LCG-NH2; thioether N-14)	2.4 nM
CCCC[C@H]1C(=O)N(C)[C@@H](CCCC)C(=O)N[C@@H](CC(C)C)C(=O)N[C@H](C(=O)NCC(N)=O)CSCC(=O)N[C@@H](Cc2ccc(O)cc2)C(=O)N(C)[C@@H](C)C(=O)N[C@@H](CC(N)=O)C(=O)N2CCC[C@H]2C(=O)N[C@@H](CNC(=O)C(=O)Nc2cc(F)cc(F)c2)C(=O)N[C@@H](CC(C)C)C(=O)N2C[C@H](O)C[C@H]2C(=O)N[C@@H](Cc2c[nH]c3ccccc23)C(=O)N[C@@H](CCNC(=O)C(=O)Nc2cc(F)cc(F)c2)C(=O)N[C@@H](Cc2cn(CC(=O)OC)c3ccccc23)C(=O)N1C [Compound 2002] ({CH2CO}-Y[NMeA]NP[Dap](X8)L[Hyp]W[Dab](X8)[Trp(1-CH2CO2Me)][NMeNle][NMeNle]LCG-NH2; thioether N-14)	350 nM
CCCC[C@H]1C(=O)N(C)[C@@H](CCCC)C(=O)N[C@@H](CC(C)C)C(=O)N[C@H](C(=O)NCC(N)=O)CSCC(=O)N[C@@H](Cc2ccc(O)cc2)C(=O)N(C)[C@@H](C)C(=O)N[C@@H](CC(N)=O)C(=O)N2CCC[C@H]2C(=O)N[C@@H](CNC(=O)C(=O)O)C(=O)N[C@@H](CC(C)C)C(=O)N2C[C@H](O)C[C@H]2C(=O)N[C@@H](Cc2c[nH]c3ccccc23)C(=O)N[C@@H](CCN)C(=O)N[C@@H](Cc2cn(CC(=O)OC)c3ccccc23)C(=O)N1C [Compound 1002] ({CH2CO}-Y[NMeA]NP[Dap](Oxalyl)L[Hyp]W[Dab][Trp(1-CH2CO2Me)][NMeNle][NMeNle]LCG-NH2; thioether N-14)	3.1 nM
CCCC[C@H]1C(=O)N(C)[C@@H](CCCC)C(=O)N[C@@H](CC(C)C)C(=O)N[C@H](C(=O)NCC(N)=O)CSCC(=O)N[C@@H](Cc2ccc(O)cc2)C(=O)N(C)[C@@H](C)C(=O)N[C@@H](CC(N)=O)C(=O)N2CCC[C@H]2C(=O)N[C@@H](CNC(=O)C(=O)O)C(=O)N[C@@H](CC(C)C)C(=O)N2C[C@H](O)C[C@H]2C(=O)N[C@@H](Cc2c[nH]c3ccccc23)C(=O)N[C@@H](CCNC(=O)C(=O)O)C(=O)N[C@@H](Cc2cn(CC(=O)O)c3ccccc23)C(=O)N1C [Compound 4001] ({CH2CO}-Y[NMeA]NP[Dap](Oxalyl)L[Hyp]W[Dab](Oxalyl)[Trp(1-CH2COOH)][NMeNle][NMeNle]LCG-NH2; thioether N-14)	3.6 nM
CCCC[C@H]1C(=O)N(C)[C@@H](CCCC)C(=O)N[C@@H](CC(C)C)C(=O)N[C@H](C(=O)NCC(N)=O)CSCC(=O)N[C@@H](Cc2ccc(O)cc2)C(=O)N(C)[C@@H](C)C(=O)N[C@@H](CC(N)=O)C(=O)N2CCC[C@H]2C(=O)N[C@@H](CNC(=O)C(=O)Nc2cccc(F)c2)C(=O)N[C@@H](CC(C)C)C(=O)N2C[C@H](O)C[C@H]2C(=O)N[C@@H](Cc2c[nH]c3ccccc23)C(=O)N[C@@H](CCNC(=O)C(=O)Nc2cccc(F)c2)C(=O)N[C@@H](Cc2cn(CC(=O)OC)c3ccccc23)C(=O)N1C [Compound 2003] ({CH2CO}-Y[NMeA]NP[Dap](X4)L[Hyp]W[Dab](X4)[Trp(1-CH2CO2Me)][NMeNle][NMeNle]LCG-NH2; thioether N-14)	370 nM
